Source: patent publication US20130197059A1, “INTEGRIN ANTAGONIST CONJUGATES FOR TARGETED DELIVERY TO CELLS EXPRESSING LFA-1” (Hoffmann-La Roche Inc., priority 2012, published 2013)
Like-named read-outs stand apart in the source and are kept apart here.

Tests used:
sLFA-1/ICAM-1 = target: T1, sLFA-1/ICAM-1 (Homo sapiens, UniProt P05107+P20701); assay: sLFA-1/ICAM-1 ELISA (LFA1 Adhesion Assay); format: binding
T1 construct: 2.0 ug/ml solution of sLFA-1 or Mac-1 receptor
Protocol: The following assay was conducted to assess effect of targeted molecules on the sLFA-1/ICAM-1 ELISA and Mac-1/ICAM-1 interactions.
Plates were coated with either 50 μl/well of 2.0 ug/ml solution of sLFA-1 or Mac-1 receptor in divalent cation buffer (1 mM MnCI2, 0.14M NaCl, 20 mM HEPES pH 7.2) at 4° C. overnight. Two hundred fifty μl of blocking buffer (1% BSA in divalent cation buffer) was added to each well 1 hour at 37° C. Plates were washed 3 times with wash buffer (TBS/0.05% Tween-20/1 mM MnCl2). The compound to be tested was solubilized in DMSO. […] Fifty μl of binding buffer (0.5% BSA in divalent cation buffer)/1% DMSO and 50 μl of the solutions to be tested were added to the appropriate wells and incubated for 1 hour. Fifty μl of 5dICAM-Fc (27 ng/ml) was added to the appropriate wells and 50 μl binding buffer was added to non-specific binding wells and incubated for 2 hours and washed. One hundred μl of 1:4000 HRP-goat anti-huIgG was added to each well and incubated for 1 hour and washed. One hundred μl of 1:1 TMB solution was added to each well and developed for 20 min at room temperature. Color development was stopped by adding 100 μl H3PO4 to each well. Absorbance was measured at 450 nm.

Jurkat Cells/VCAM-1 = Jurkat Cells/VCAM-1 Adhesion Assay; format: cell-based; details: Table 4
AHA1 mRNA = assay: Knock-down of AHA1 mRNA by 5′-sense strand modified siRNA (Branched DNA Assay); format: cell-based; details: H1299 cells, siRNA 50 nM, DharmaFect-1 reverse transfection, 48 hours
Protocol: Assay of 5′-Sense Strand Modified siRNA for Knock-Down of AHA1 mRNA in Cellular Systems
Reference gene: GAPDH Cell line: H1299_Nut-One Plating density: 5,000 cells/well Plating format: 96-well Time from plating to treatment: 0 Control treatment: mock, untreated, control siRNA Transfection reagent: DharmaFectl
TF Reagent volume/well […] siRNA final concentration 50 nM Assay method: Day 1 manual/Day 2 Washer
Reverse transfection: H1299 cells were transfected with indicated siRNA at final concentration of 50 nM using DharmaFect-1 transfection reagent at 0.15 μl/well. Cells were then plated into 96-well plate at 5000 cells/well and incubated at 37° C. for 48 hours.
The efficacy of siRNA knock-down was measured with a Branched DNA Assay as reported by the vendor; the results of such knockdown are shown in FIG. 5. The relative cell viability was assessed by the absolute expression of GAPDH in the same well (FIG. 6).

[1] = Table 4, read-out: LFA1 Adhesion Assay
[2] = control compounds, read-out: IC50

T1 sequence (P20701 26-1090 limits assumed): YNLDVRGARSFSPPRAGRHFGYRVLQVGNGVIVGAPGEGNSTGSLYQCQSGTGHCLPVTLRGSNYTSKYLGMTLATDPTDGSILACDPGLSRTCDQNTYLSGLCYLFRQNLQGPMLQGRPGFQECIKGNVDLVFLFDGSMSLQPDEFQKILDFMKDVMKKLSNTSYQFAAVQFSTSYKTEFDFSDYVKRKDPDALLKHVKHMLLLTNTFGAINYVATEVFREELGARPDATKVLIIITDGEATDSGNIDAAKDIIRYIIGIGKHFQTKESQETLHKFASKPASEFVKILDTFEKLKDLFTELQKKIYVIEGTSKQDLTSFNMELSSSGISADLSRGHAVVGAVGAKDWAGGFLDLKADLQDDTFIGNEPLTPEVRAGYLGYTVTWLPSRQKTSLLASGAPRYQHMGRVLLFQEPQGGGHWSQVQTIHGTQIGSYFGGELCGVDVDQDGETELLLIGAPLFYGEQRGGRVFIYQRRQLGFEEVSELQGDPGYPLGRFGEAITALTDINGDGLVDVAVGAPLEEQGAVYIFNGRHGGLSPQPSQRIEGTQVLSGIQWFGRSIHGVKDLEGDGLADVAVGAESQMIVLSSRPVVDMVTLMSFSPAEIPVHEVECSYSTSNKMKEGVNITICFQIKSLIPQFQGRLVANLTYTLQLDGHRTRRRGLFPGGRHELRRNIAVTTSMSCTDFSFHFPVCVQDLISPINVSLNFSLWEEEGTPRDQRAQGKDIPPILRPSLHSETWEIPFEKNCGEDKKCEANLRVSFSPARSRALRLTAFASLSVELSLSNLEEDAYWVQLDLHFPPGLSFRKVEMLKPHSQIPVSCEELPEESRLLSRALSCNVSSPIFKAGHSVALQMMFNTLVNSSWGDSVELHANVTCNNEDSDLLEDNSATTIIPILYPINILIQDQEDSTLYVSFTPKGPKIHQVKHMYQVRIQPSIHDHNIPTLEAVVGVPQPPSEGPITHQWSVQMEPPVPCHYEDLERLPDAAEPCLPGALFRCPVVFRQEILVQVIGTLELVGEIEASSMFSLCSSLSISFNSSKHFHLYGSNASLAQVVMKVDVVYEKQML
T1 sequence (P05107 23-700 limits assumed): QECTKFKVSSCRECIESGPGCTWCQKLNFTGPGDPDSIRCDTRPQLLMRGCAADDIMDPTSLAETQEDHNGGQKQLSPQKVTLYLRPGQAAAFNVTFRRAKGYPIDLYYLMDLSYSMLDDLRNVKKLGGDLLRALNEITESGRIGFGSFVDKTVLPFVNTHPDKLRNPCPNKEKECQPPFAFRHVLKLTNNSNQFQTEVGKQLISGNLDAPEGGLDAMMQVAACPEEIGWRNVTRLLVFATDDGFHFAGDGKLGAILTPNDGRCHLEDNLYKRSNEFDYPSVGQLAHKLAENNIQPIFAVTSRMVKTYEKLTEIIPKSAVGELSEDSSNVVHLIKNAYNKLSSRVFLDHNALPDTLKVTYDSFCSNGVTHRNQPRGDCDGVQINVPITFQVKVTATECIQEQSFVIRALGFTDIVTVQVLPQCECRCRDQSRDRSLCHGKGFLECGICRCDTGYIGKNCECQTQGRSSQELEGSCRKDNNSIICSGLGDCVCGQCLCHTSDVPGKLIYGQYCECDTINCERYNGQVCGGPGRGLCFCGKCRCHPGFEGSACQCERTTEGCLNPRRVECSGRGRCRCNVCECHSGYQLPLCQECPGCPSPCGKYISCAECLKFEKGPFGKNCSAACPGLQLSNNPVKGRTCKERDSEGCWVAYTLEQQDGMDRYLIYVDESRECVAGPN

Cc1cc(C(=O)NCc2cccc(Cl)c2)cc(C)c1C(=O)N[C@@H](CNC(=O)c1cccs1)C(=O)O [compound 142]
IC50 (sLFA-1/ICAM-1; [1]): 37 nM | IC50 (sLFA-1/ICAM-1; Table 5, read-out: LFA1 Adhesion Assay (IC50 nM)): 74 nM | IC50 (sLFA-1/ICAM-1; [2]): ~37 nM

Duplex-1: AHA1 siRNA duplex without targeting element: Sense-1 GGAuGAAGuGGAGAuuAGudTsdT, Antisense-1 ACuAAUCUCcACUUcAUCCdTsdT (sense GGAUGAAGUGGAGAUUAGUTT; antisense ACUAAUCUCCACUUCAUCCTT; lowercase nucleotides modified, meaning not given here, dTsdT 3' overhang)
IC50 (Jurkat Cells/VCAM-1): > 200 nM | AHA1 % KD (AHA1 mRNA): 98%

O=C(NCc1cccc(O)c1)c1cc(Cl)c(C(=O)N[C@@H](CNC(=O)c2cc(O)cc(O)c2)C(=O)O)c(Cl)c1 [compound 143]
IC50 (sLFA-1/ICAM-1; [1]): 11 nM | IC50 (sLFA-1/ICAM-1; [2]): ~11 nM
